Laboratory results as given in patent US20160178610A1, “New screening method for the treatment Friedreich's ataxia” (FRIEDRICH MIESCHER INSTITUTE FOR BIOMEDICAL RESEARCH, priority 2013, published 2016).

What was measured:
[1] = tested on: endogenous FXN gene expression in FRDA-iPSC-derived neurons; test: FXN mRNA levels in FRDA-iPSC-derived neurons by real-time RT-PCR, normalized to RPL13A; type: cell-based, human; settings: for effect on FXN expression: FRDA-iPSC-derived neurons, treated for 3 weeks, five concentrations, biological duplicates
Method: (§1) FIG. 1: Exposure of FRDA-iPSC-derived neurons to [2,6] Naphtyhyridine is the cyclohexyl-[4-(4-phenyl-1-piperazin-1-yl-[2,6]naphthyridin-3-yl)pyridin-2-yl]amine, a chemical inhibitor of PRKD1, leads to an increase in FXN expression while a control compound has no effect. […] FXN mRNA levels were determined by real-time RT-PCR, normalized to RPL13A mRNA levels. *P=0.03.
For quantitative RT-PCR (qRT-PCR) experiments, total RNA was extracted from GM04078, FRDA-4078iBT, and HEK293T-FF2AP cell lines with the Absolutely RNA Microprep Kit (Stratagene). A 1-μg aliquot of total RNA was reverse transcribed with AffinityScript enzyme (Stratagene) using random hexamers according to the manufacturer's instructions. qRT-PCR was performed on a CFX96 Real-Time PCR System (Bio-Rad) using the SsoAdvanced SYBR Green Supermix (Bio-Rad, #172-5264). Relative RNA levels were calculated from CT values according to the ΔCT method and normalized to GAPDH mRNA or 18S rRNA levels. Reprogrammed cells were washed once and total RNA isolated using TRIzol (Life Technologies). After chloroform extraction, RNA was purified using a RNeasy Plus Kit (Qiagen, Germantown, Md.). RNA purity and concentration were verified using an Aligent 2100 Bioanalyzer (Santa Clara, Calif.). […]
Endoderm: Accutase was used for cell dissociation to single cells, which were then plated on matrigel in mTeSR with rock-inhibitor Y27632 (Calbiochem, Darmstadt, Germany) at a density of 100×10^3 per cm^2. […] In order to quantify the efficiency of differentiation into Pax6-expressing neural progenitors, immunostained cultures were generated and the percentage of Pax6-positive and DAPI-positive cells determined in 10 randomly selected microscopic fields. In order to quantify the efficiency of differentiation into β-III Tubulin-expressing neurons, a similar approach was used with cultures previously treated with cytosine-1-β-D-arabinofuranoside to prevent the expansion of neural progenitors. […]

[2] = tested on: FRDA-iPSC-derived neurons; test: Neuron viability / compound toxicity in FRDA-iPSC-derived neuron cultures; type: cell-based, human; settings: even at 10 μM
Method: as §1
Importantly, treatment with the compound of formula (II) led to a 25% increase in FXN mRNA expression in FRDA neurons after only 3 weeks of treatment. […] In addition, neuron viability was not affected by exposure to the compound of formula (II), even at 10 μM.

c1ccc(-c2c(-c3ccnc(NC4CCCCC4)c3)nc(N3CCNCC3)c3ccncc23)cc1 [compound of formula (II), cyclohexyl-[4-(4-phenyl-1-piperazin-1-yl-[2,6]naphthyridin-3-yl)pyridin-2-yl]amine]
increase in FXN mRNA expression ([1]; FRDA neurons, after 3 weeks of treatment): 25% | effect on FXN expression [1]: significant increase | effect on FXN expression ([1]; listed as cyclohexyl-[4-(4-phenyl-1-piperazin-1-yl-[2,6]naphthyridin-3-yl)pyridin-2-yl]ami): increase | neuron viability [2]: not affected
